Measured values published in US8168801B2, “Imidazolium-type ionic oligomers” (The Royal Institution for the Advancement of …, priority 2007, dated 2012).
Counter-ions that a name gives are not always drawn.

Tests used:
[1] = Thermal stability by thermogravimetric analysis (TGA); assay type: physicochemical; conditions: 25° C. to 550° C. at 20° C./min under nitrogen, then air to 700° C., platinum pan
Method: The thermal stability of the imidazolium-type ionic oligomers was measured by thermogravimetric analysis (TGA).^42 The onset decomposing temperatures (ODTs) and residue percentages (RPs) are summarized hereinbelow in Table 1.
General: All reagents were commercially obtained from Aldrich Chemical Co. and were used without further purification unless otherwise noted. Solvents were of reagent grade and, if necessary, were dried by standard procedures. ^1H NMR, ^13C NMR and COSY NMR spectra were acquired using Varian Mercury 300 MHz, 400 MHz and Unity 500 MHz spectrometers respectively, equipped with Sun workstations. The proton chemical shifts were reported in parts per million on the δ scale, referenced to the residual proton resonance in CDCl3 (δ 7.24 ppm) or D2O (δ 4.67 ppm). The carbon chemical shifts were reported in parts per million on the δ scale, internally referenced to the solvent resonance in CDCl3 (δ 77.0 ppm). The proton and carbon assignments were made by standard gCOSY experiments. Melting points were taken using a standard melting point apparatus without correcting the thermometer. High resolution mass spectrometric analyses were performed on a VG Micromass ZAB 2F HS (FAB) or a Microm as Quattro II triple quadrupole mass spectrometer (Manchester, UK) equipped with an electrospray ionization source (ESI). Typically only the ion corresponding to the cation (C) component was analyzed. Thermogravimetric analysis (TGA) measurements were performed on a TGA Q500 from TA instruments. The running method used was ramped from 25° C. to 550° C., 20° C./min, under nitrogen, switching to air and then ramped at 20° C./min to 700° C. The type of pan used was platinum. High-pressure liquid chromatography (HPLC) analyses were performed using a reverse phase C18 column (Agilent Zorbax Extend-C18). The elution was performed using a linear gradient from 50% to 100% of B in A over 20 min, followed by a linear gradient elution from 100% to 50% of B in A over 10 min, where A is H2O/0.05% TFA (v/v) and B is CH3CN/0.05% TFA (v/v), at a flow rate of 0.8 mL/min. The eluted compounds were detected by UV absorbance at 210 nm. […]

[2] = Moisture affinity (absorption of moisture from the atmosphere); assay type: physicochemical

Molecule Cc1n(C)cc[n+]1CCCBr (as salt: bromide) [Compound 2] has a melting point of 96 to 98 °C.
In the case of Cc1nccn1CCC[n+]1ccn(C)c1C (as salt: bromide) [Compound 3], the melting point is reported as 159 to 161 °C.
Molecule Cc1n(C)cc[n+]1CCCn1cc[n+](CCCBr)c1C (as salt: bromide) [Compound 9] has a melting point of 201 to 203 °C.
In the case of Cc1nccn1CCC[n+]1ccn(C)c1C (as salt: triflate) [Compound 4], the melting point is reported as 120 to 122 °C.
In the case of Cc1n(C)cc[n+]1CCCn1cc[n+](CCCBr)c1C (as salt: triflate) [Compound 5], the melting point is reported as 76 to 78 °C.
For Cc1n(C)cc[n+]1CCCn1cc[n+](CCCBr)c1C (as salt: triflate) [Compound 10], the melting point was 84 to 86 °C.
With Cc1nccn1C [Compound 1, 1,2-dimethylimidazole, reference compound] the “Onset decomposing temperature (ODT)” value [1] was 80.6 °C and the “Residue percentage (RP)” value [1] was 0.18%.
In the case of Cc1n(C)cc[n+]1CCCBr [Compound 2], the “Onset decomposing temperature (ODT)” value [1] is reported as 215.8 °C and the “Residue percentage (RP)” value [1] is reported as 0.10%.
For Cc1nccn1CCC[n+]1ccn(C)c1C [Compound 3], the “Onset decomposing temperature (ODT)” value [1] was 287.8 °C, the “Residue percentage (RP)” value [1] was 1.53% and the “Absorption of moisture from the atmosphere” value (“Absorption of moisture” for short) [2] was “significantly slower rate than compound 2”.
With Cc1nccn1CCC[n+]1ccn(C)c1C [Compound 4] the “Onset decomposing temperature (ODT)” value [1] was 293.9 °C, the “Residue percentage (RP)” value [1] was 1.71% and the “Absorption of moisture” value [2] was “significantly slower rate than compound 2”.
For Cc1n(C)cc[n+]1CCCn1cc[n+](CCCBr)c1C [Compound 5], the “Onset decomposing temperature (ODT)” value [1] was 239.4 °C and the “Residue percentage (RP)” value [1] was 0.59%.
In the case of Cc1nccn1CCC[n+]1ccn(CCC[n+]2ccn(C)c2C)c1C [Compound 6], the “Onset decomposing temperature (ODT)” value [1] is reported as 329.6 °C, the “Residue percentage (RP)” value [1] is reported as 1.38% and the “Absorption of moisture” value [2] is reported as “did substantially not absorb moisture”. For the same molecule, the melting point was 121 to 123 °C.
With Cc1n(C)cc[n+]1CCCn1cc[n+](CCCBr)c1C [Compound 9] the “Onset decomposing temperature (ODT)” value [1] was 212.2 °C and the “Residue percentage (RP)” value [1] was 1.89%.
For Cc1n(C)cc[n+]1CCCn1cc[n+](CCCBr)c1C [Compound 10], the “Onset decomposing temperature (ODT)” value [1] was 277.8 °C and the “Residue percentage (RP)” value [1] was 0.50%.
In the case of Cc1nccn1CCC[n+]1ccn(CCC[n+]2ccn(C)c2C)c1C [Compound 11], the “Onset decomposing temperature (ODT)” value [1] is reported as 326.2 °C, the “Residue percentage (RP)” value [1] is reported as 1.76% and the “Absorption of moisture” value [2] is reported as “did substantially not absorb moisture”. For the same molecule, the melting point was 107 to 109 °C.
